“And” between values parts separate entries of the source, which are not always exact repeats. Equal entries are not always repeated. Toxic doses and inconclusive results are not listed.

In the test the test system is BDF1 mice, P388 leukemia ip, median survival T/C. Put plainly: NCI In Vivo Anticancer Drug Screen. Data for tumor model P388 Leukemia (intraperitoneal) in B6D2F1 (BDF1) mice. The note with it: endpoint: median survival time, higher = longer survival. In a few lines:
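Each value expresses how treatment altered survival: treated-mouse outcome over vehicle-mouse outcome, both groups bearing the transplanted tumour.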

[1] abbreviates: dose: 100.0 mg/kg/injection, schedule: Q04DX003 (ip), vehicle: saline with Tween-80.
Setting [2] is: dose: 200.0 mg/kg/injection, schedule: Q04DX003 (ip), vehicle: saline with Tween-80.
[3] abbreviates: dose: 400.0 mg/kg/injection, schedule: Q04DX003 (ip), vehicle: saline with Tween-80.
Where [4] appears, read: dose: 6.25 mg/kg/injection, schedule: Q04DX003 (ip), vehicle: saline with Tween-80.
Where [5] appears, read: dose: 12.5 mg/kg/injection, schedule: Q04DX003 (ip), vehicle: saline with Tween-80.
The mark [6] stands for this setting: dose: 25.0 mg/kg/injection, schedule: Q04DX003 (ip), vehicle: saline with Tween-80.
The mark [7] stands for this setting: dose: 50.0 mg/kg/injection, schedule: Q04DX003 (ip), vehicle: saline with Tween-80.
The mark [8] stands for this setting: dose: 50.0 mg/kg/injection, schedule: Q01DX009 (ip), vehicle: saline with Tween-80.
[9] abbreviates: dose: 100.0 mg/kg/injection, schedule: Q01DX009 (ip), vehicle: saline with Tween-80.
[10] abbreviates: dose: 200.0 mg/kg/injection, schedule: Q01DX009 (ip), vehicle: saline with Tween-80.
The mark [11] stands for this setting: dose: 12.5 mg/kg/injection, schedule: Q01DX009 (ip), vehicle: saline.
Where [12] appears, read: dose: 25.0 mg/kg/injection, schedule: Q01DX009 (ip), vehicle: saline.
[13] abbreviates: dose: 50.0 mg/kg/injection, schedule: Q01DX009 (ip), vehicle: saline.
[14] abbreviates: dose: 100.0 mg/kg/injection, schedule: Q04DX003 (ip), vehicle: saline.
The mark [15] stands for this setting: dose: 200.0 mg/kg/injection, schedule: Q04DX003 (ip), vehicle: saline.
[16] abbreviates: dose: 400.0 mg/kg/injection, schedule: Q01DX009 (ip), vehicle: saline.
Where [17] appears, read: dose: 400.0 mg/kg/injection, schedule: Q04DX003 (ip), vehicle: saline.

In the case of `COC(=O)c1cc[nH]c1CC(=O)O`, the T/C by setting is: (dose: 100.0 mg/kg/injection, schedule: Q01DX001 (ip), vehicle: saline with Tween-80) 101 % of control; (dose: 200.0 mg/kg/injection, schedule: Q01DX001 (ip), vehicle: saline with Tween-80) 106 % of control; (dose: 400.0 mg/kg/injection, schedule: Q01DX001 (ip), vehicle: saline with Tween-80) 110 % of control.

Take `O=C(O)C1CCC2(CCCCC2)CC1`: the T/C (dose: 6.25 mg/kg/injection, schedule: Q01DX009 (ip), vehicle: water) is 106 % of control; the T/C (dose: 12.5 mg/kg/injection, schedule: Q01DX009 (ip), vehicle: water) was 100 % of control; the T/C (dose: 12.5 mg/kg/injection, schedule: Q04DX003 (ip), vehicle: water) was 104 % of control; the T/C (dose: 25.0 mg/kg/injection, schedule: Q01DX009 (ip), vehicle: water) was 113 % of control and 117 % of control; the T/C (dose: 25.0 mg/kg/injection, schedule: Q04DX003 (ip), vehicle: water) was 94 % of control and 106 % of control and 116 % of control; the T/C (dose: 50.0 mg/kg/injection, schedule: Q01DX009 (ip), vehicle: water) is 99 % of control and 106 % of control. Also, the T/C was 94 % of control and 100 % of control (dose: 100.0 mg/kg/injection, schedule: Q01DX009 (ip), vehicle: water); 88 % of control (dose: 200.0 mg/kg/injection, schedule: Q01DX009 (ip), vehicle: water).

Take `COC(=O)c1cccn1C(=O)c1c2nc3c(C(=O)n4cccc4C(=O)OC)ccc(C)c3oc-2c(C)c(=O)c1N`: the T/C was 101 % of control under setting [1], 102 % of control under setting [2] and 103 % of control under setting [3].

In the case of `COc1ccc(C(=O)C=C(C(F)(F)F)C(F)(F)F)cc1`, the T/C is, setting by setting: under setting [4], 113 % of control; under setting [5], 100 % of control; under setting [6], 100 % of control; under setting [7], 115 % of control; under setting [1], 110 % of control.

Take `COc1cc2cc3c4cc(OC)c(OC)cc4cc[n+]3c(CCC(=O)O)c2cc1OC` (tested in a mixture with another compound): the T/C reads like this: (dose: 100.0 mg/kg/injection, schedule: Q01DX009 (ip), vehicle: Klucel (hydroxypropylcellulose) (HPC)) 92 % of control; (dose: 200.0 mg/kg/injection, schedule: Q01DX009 (ip), vehicle: Klucel (hydroxypropylcellulose) (HPC)) 119 % of control.

As for `CCCCOc1ccc(C(=O)NN)cc1`, the T/C reads like this: (dose: 6.25 mg/kg/injection, schedule: Q01DX009 (ip), vehicle: saline with Tween-80) 118 % of control; under setting [4], 100 % of control; (dose: 12.5 mg/kg/injection, schedule: Q01DX009 (ip), vehicle: saline with Tween-80) 108 % of control; under setting [5], 91 % of control and 92 % of control; (dose: 25.0 mg/kg/injection, schedule: Q01DX009 (ip), vehicle: saline with Tween-80) 99 % of control; under setting [6], 90 % of control and 106 % of control. The T/C is 115 % of control under setting [8]; 97 % of control and 98 % of control under setting [7]; 97 % of control under setting [9].

Turning to `COc1cc2c(c3c1c(=O)c1ccccc1n3C)C=CC(C)(C)O2`, the T/C runs as follows: (dose: 12.5 mg/kg/injection, schedule: Q01DX010 (ip), vehicle: saline) 100 % of control; (dose: 25.0 mg/kg/injection, schedule: Q01DX010 (ip), vehicle: saline) 90 % of control; (dose: 50.0 mg/kg/injection, schedule: Q01DX010 (ip), vehicle: saline) 90 % of control; (dose: 100.0 mg/kg/injection, schedule: Q01DX010 (ip), vehicle: saline) 90 % of control.

`S=C(N/N=C/c1ccc(-c2ccccc2)cc1)Nc1ccccc1`: the T/C is, setting by setting: under setting [8], 91 % of control; under setting [7], 95 % of control; under setting [9], 91 % of control; under setting [1], 91 % of control; under setting [10], 91 % of control; under setting [2], 91 % of control.

Turning to `COc1ccc2nc(Cl)c(C)c(C)c2c1`, the T/C was 96 % of control under setting [11]; 88 % of control under setting [12]; 100 % of control (dose: 25.0 mg/kg/injection, schedule: Q04DX003 (ip), vehicle: saline); 93 % of control under setting [13]; 100 % of control (dose: 50.0 mg/kg/injection, schedule: Q04DX003 (ip), vehicle: saline); 109 % of control under setting [14]. Also, the T/C by setting is: under setting [15], 90 % of control; under setting [16], 92 % of control; under setting [17], 100 % of control.

Take `C#CCOCC(O)CN` (stereo unspecified): the T/C was 100 % of control (dose: 100.0 mg/kg/injection, schedule: Q01DX009 (ip), vehicle: saline); 110 % of control under setting [14]; 120 % of control (dose: 200.0 mg/kg/injection, schedule: Q01DX009 (ip), vehicle: saline); 100 % of control under setting [15]; 104 % of control under setting [16]; 100 % of control under setting [17].

For `CC(C(O)c1cccs1)C(O)(C(F)(F)F)C(F)(F)F` (stereo unspecified), the T/C is, setting by setting: under setting [1], 90 % of control; under setting [2], 109 % of control.

Take `CN1C(=O)C(Br)=C(c2cccs2)C1=O`: the T/C by setting is: (dose: 25.0 mg/kg/injection, schedule: Q01DX001 (ip), vehicle: saline with Tween-80) 109 % of control; (dose: 50.0 mg/kg/injection, schedule: Q01DX001 (ip), vehicle: saline with Tween-80) 103 % of control.

Turning to `COc1cc(C=O)ccc1OCc1ccccc1`, the T/C was 109 % of control (dose: 1.0 mg/kg/injection, schedule: Q01DX009 (ip), vehicle: saline with Tween-80); 104 % of control (dose: 2.0 mg/kg/injection, schedule: Q01DX009 (ip), vehicle: saline with Tween-80); 104 % of control (dose: 4.0 mg/kg/injection, schedule: Q01DX009 (ip), vehicle: saline with Tween-80); 92 % of control (dose: 8.0 mg/kg/injection, schedule: Q01DX009 (ip), vehicle: saline with Tween-80); 95 % of control under setting [1]; 109 % of control under setting [2]. Besides, the T/C under setting [3] is 109 % of control.

Take `O=C1c2ccccc2C(=O)c2c(NCCNCCO)ccc(NCCNCCO)c21`: the T/C by setting is: (dose: 2.0 mg/kg/injection, schedule: Q01DX009 (ip), vehicle: water) 163 % of control; (dose: 3.12 mg/kg/injection, schedule: Q01DX009 (ip), vehicle: saline) 262 % of control and 403 % of control and 239 % of control; (dose: 4.0 mg/kg/injection, schedule: Q01DX009 (ip), vehicle: water) 111 % of control; (dose: 4.0 mg/kg/injection, schedule: Q04DX003 (ip), vehicle: saline with Tween-80) 154 % of control; (dose: 6.25 mg/kg/injection, schedule: Q01DX009 (ip), vehicle: saline) 502 % of control and 202 % of control and 189 % of control; (dose: 8.0 mg/kg/injection, schedule: Q01DX009 (ip), vehicle: water) 96 % of control. Further, the T/C (dose: 8.0 mg/kg/injection, schedule: Q04DX003 (ip), vehicle: saline with Tween-80) is 165 % of control; the T/C under setting [11] is 503 % of control and 517 % of control; the T/C (dose: 13.0 mg/kg/injection, schedule: Q04DX003 (ip), vehicle: saline + alcohol) is 222 % of control; the T/C (dose: 16.0 mg/kg/injection, schedule: Q04DX003 (ip), vehicle: saline with Tween-80) was 165 % of control; the T/C (dose: 21.6 mg/kg/injection, schedule: Q04DX003 (ip), vehicle: saline + alcohol) was 321 % of control; the T/C under setting [12] is 517 % of control. In addition, the T/C is, setting by setting: (dose: 32.0 mg/kg/injection, schedule: Q04DX003 (ip), vehicle: saline with Tween-80) 192 % of control; (dose: 36.0 mg/kg/injection, schedule: Q04DX003 (ip), vehicle: saline + alcohol) 311 % of control; under setting [13], 74 % of control; (dose: 60.0 mg/kg/injection, schedule: Q04DX003 (ip), vehicle: saline + alcohol) 201 % of control; (dose: 64.0 mg/kg/injection, schedule: Q04DX003 (ip), vehicle: saline with Tween-80) 274 % of control.

Turning to `CN1c2ccccc2C(=O)NC1c1ccc([N+](=O)[O-])s1` (stereo unspecified), the T/C was 95 % of control under setting [8], 100 % of control under setting [9] and 91 % of control under setting [10].

Source of the values: PubChem BioAssay AID328 (DTP/NCI, 2004).
